According to patent US7189745B1, “Compounds” (SmithKline Beecham Corporation, priority 1999, dated 2007):

Tests used:
[1] = molecular target: T1, Tie2 kinase (Homo sapiens, UniProt Q02763); experiment: Tie2 kinase autophosphorylation flashplate assay; format: biochemical; conditions: ATP final 30 uM
T1 construct: a baculovirus expressed GST fusion for Tie2 kinase domain was constructed and expressed using the commercial vector pAcG I (Pharmingen); GST; made in house
Text: A partial cDNA clone for the Tie2 receptor was used to make protein for Tie kinase studies. In order to generate the primary screening assay, a baculovirus expressed GST fusion for Tie2 kinase domain was constructed and expressed using the commercial vector pAcG I (Pharmingen).
This final construct was transfected into Baculovirus and soluble GST fusion products used in the screening assay.
Tie2 kinase activity assay: The Tie2 kinase activity assay was typically run in one of 2 ways described as follows. Minor variations in the assay give similar results.
1. Autophosphorylation flashplate assay
Kinase buffer (final 20 mM Tris-HCl, pH7.0, 100 mM NaCl, 12 mM MgCl2, 1 mM DTT).
Gamma ^33p-ATP (usually final amount of 0.5–1 uCi/well)
ATP (final 30 uM, or other desired concentration)
Flashplate (96-well, polystyrene microplate with plastic scintillator coated wells)
TopCount (microplate scintillation counter)
Turn on incubator shaker and adjust temperature to 30° C.
Add 20 ul of 3× kinase buffer per well to the Flashplate
Add 20 ul of protein per well except for background. Compounds added, typically in DMSO stocks, at 1–2 ul.
Add 20 ul mixture of gamma ^33p-ATP and cold ATP per well.
Cover with transparent polyester film.
Incubate at 30° C. for two hours in shaker, or desired time. […]
Read plate on TopCount or other counting instrument. Results are calculated as % inhibition […]

[2] = molecular target: T2, activated tie 2 kinase (Homo sapiens, UniProt Q02763); experiment: Fluorescence polarization for Tie 2 kinase; format: biochemical; conditions: fluorescence polarization assay, 250 uM ATP, 10 uM peptide substrate
T2 construct: a baculovirus expressed GST fusion for Tie2 kinase domain was constructed and expressed using the commercial vector pAcG I (Pharmingen); GST; made in house
Procedure: 2. Fluorescence Polarization for Tie 2 Kinase
2% DMSO (when screening compounds)
activated tie 2 kinase * see activation protocol below
For a 50 ul reaction add the following to each well of a 96-well black half-area plate (Costar, cat# 3694) • 1.5 ul of compound in 20% DMSO • 5 ul 9× kinase buffer. • 5 ul 2.5 mM ATP. • 5 ul 100 uM peptide substrate. • 25 ul PTK detection mix (Panvera, P-2652, 50 ml—UK distributor is Cambridge Bioscience) • 5 ul activated tie 2 kinase (protocol below) diluted in 1× buffer to initiate the reaction. • 7. Read polarization on an FP instrument cycling for 30–50 minutes in accordance with enzyme activity.
Activation of Tie 2 Kinase Protocol:
• 1. Incubate 5 uM tie 2 kinase in the 300 uM ATP and the buffering conditions described above. • 2. Allow to incubate at 27° C. for 2 hours. • 3. Add 2.5 ml reaction to a NAP-25 desalting column (Pharmacia Biotech cat. no. 17-0852-02) pre-equilibrated in 20 mM Tris-HCl pH 7.5, 100 mM NaCl2 to separate the ATP from the enzyme. • 4. Elute the enzyme with 5.0 ml 20 mM Tris-HCl pH 7.5, 100 mM NaCl2; the protein concentration should be 2.5 uM at this point. • 5. Aliquot out the enzyme and store at −80° C. as soon as possible. B. Measurement of Tie2 Receptor Signal Transduction—a Cellular Assay

[3] = test system: angiogenesis (vascular density) in air pouch granuloma; experiment: Murine air pouch granuloma model of inflammatory angiogenesis; format: in vivo, mice; conditions: positive control
Text: Measurement of Angiogenesis In Vivo—Murine Air Pouch Granuloma Model:
The murine airpouch granuloma model of chronic inflammation (Kimura et al., 1985, J. Pharmacobio-Dyn., 8:393–400; Colville-Nash et al., 1995, J. Pharm. and Exp. Ther., 274:1463–1472) whose disclosure is incorporated herein by reference in its entirety, is characterized by inflammatory cell influx, fibrous tissue proliferation and intense angiogenesis. […] In addition, angiogenesis can be accurately quantitated by a vascular casting method.
Day 1, mice are anesthetized using Aerrane (isoflurane) gas (5%) or other approved methods, after which 3 mls of air is injected into the dorsal subcutaneous tissue using a 27 g needle. Mice are allowed to recover. […]
When the granuloma is removed it is weighed and then dried for 3 days at 45° C. and reweighed. […] The carmine content is then determined against a carmine red standard curve (0.5 to 2 mg/ml) generated in extracted tissue from non carmine treated animals and read at 490 nm. Sample and standard values are determined typically using DeltaSoft Elisa analysis software (Biometallics Inc., Princeton, N.J.). […]
The effect of compounds on vascular density was typically measured for 6 days after induction of the granuloma. This time point has been determined to be at or near the peak of angiogenesis. […] Medroxyprogesterone had no effect on granuloma size as measured by dry weight.

T2 sequence (Q02763 824-1096 limits assumed): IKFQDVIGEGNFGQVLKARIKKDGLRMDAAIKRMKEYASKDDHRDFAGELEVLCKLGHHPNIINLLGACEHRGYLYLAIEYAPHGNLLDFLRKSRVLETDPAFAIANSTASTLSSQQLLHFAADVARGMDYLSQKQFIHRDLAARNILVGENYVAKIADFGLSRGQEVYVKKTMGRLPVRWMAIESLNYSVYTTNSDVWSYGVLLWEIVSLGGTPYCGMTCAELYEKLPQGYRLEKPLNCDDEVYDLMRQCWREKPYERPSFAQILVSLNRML
T1 sequence (Q02763 824-1096 limits assumed): as above

Row | Compound | IC50 [1] [nM] | IC50 [2] [nM] | maximum reduction (vascular density) ([3]; measured 6 days after induction of the granuloma) [%] | effect on granuloma size as measured by dry weight ([3]; murine air pouch granuloma)
1 | COc1ccc2cc(-c3nc(C(C)(C)CNC(=O)OC(C)(C)C)[nH]c3-c3ccncc3)ccc2c1 [Example 1, (2-(4-(6-methoxynapthalen-2-yl)-5-pyridin-4-yl-1H-imidazol-2-yl)-2-methyl-propyl)-carbamic acid tert-butyl ester] | < 1000 | < 1000 | – | –
2 | medroxyprogesterone | – | – | 50 | no effect
